A short description of one series: in vivo. Conditions: mouse.
The next series addresses T1, plasmin (Homo sapiens, UniProt P00747).
T1 construct: trypsin and the related enzymes thrombin, plasmin, factor Xa, tPA
Description: Inhibition of plasmin (Ki). Type of series: biochemical. Conditions: Table 26.

Another series addresses glandular kallikrein (Sus scrofa, UniProt P00752). Description: Inhibition of glandular kallikrein (Ki). The format is biochemical. Conditions: Table 26; read-out: Ki, Gland. Kallikrein.
Another series addresses T2, factor XIIa (Homo sapiens, UniProt P00748).
T2 construct: glandular kallikrein, factor XIIa and plasma kallikrein
T2 sequence (P00748 373-615 limits assumed): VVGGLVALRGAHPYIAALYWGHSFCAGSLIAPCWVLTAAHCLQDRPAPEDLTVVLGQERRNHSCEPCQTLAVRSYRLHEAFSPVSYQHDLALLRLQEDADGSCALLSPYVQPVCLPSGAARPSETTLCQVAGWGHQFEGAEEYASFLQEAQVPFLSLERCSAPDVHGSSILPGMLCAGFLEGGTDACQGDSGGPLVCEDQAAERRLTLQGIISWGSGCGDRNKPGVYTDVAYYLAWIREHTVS
Put plainly: Inhibition of factor XIIa (Ki). The format is biochemical. Conditions: Table 26.

The target of another series is tPA (Homo sapiens, UniProt P00750). Put plainly: Inhibition of tPA (Ki). The format is biochemical. Conditions: Table 26.
tPA, sequence (P00750 36-562): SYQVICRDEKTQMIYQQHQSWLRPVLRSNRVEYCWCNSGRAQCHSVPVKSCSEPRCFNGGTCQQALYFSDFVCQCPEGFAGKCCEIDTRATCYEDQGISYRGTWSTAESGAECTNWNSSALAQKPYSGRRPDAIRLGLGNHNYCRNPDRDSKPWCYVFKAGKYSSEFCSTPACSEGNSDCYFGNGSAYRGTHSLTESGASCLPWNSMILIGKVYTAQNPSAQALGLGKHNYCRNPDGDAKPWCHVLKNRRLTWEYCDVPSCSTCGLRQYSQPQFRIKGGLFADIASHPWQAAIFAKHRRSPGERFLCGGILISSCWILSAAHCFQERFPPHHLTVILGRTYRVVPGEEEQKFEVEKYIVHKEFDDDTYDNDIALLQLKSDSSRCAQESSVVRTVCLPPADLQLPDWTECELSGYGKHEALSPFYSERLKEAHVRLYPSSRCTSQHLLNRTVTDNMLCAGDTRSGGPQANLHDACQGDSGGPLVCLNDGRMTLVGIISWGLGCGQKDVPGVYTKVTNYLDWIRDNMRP
Another series addresses T3, plasma kallikrein (Homo sapiens, UniProt P03952).
T3 construct: glandular kallikrein, factor XIIa and plasma kallikrein
Description: Inhibition of plasma kallikrein (Ki). Type of series: biochemical. Conditions: Table 26.

In another series the target is thrombin (Bos taurus, UniProt P00735). Put plainly: Inhibition of thrombin (dissociation constant Ki). Type of series: biochemical.
Another series deals with factor Xa (Bos taurus, UniProt P00743). Put plainly: Inhibition of factor Xa (dissociation constant Ki). Type of series: biochemical.
factor Xa, sequence (P00743 234-492 limits assumed): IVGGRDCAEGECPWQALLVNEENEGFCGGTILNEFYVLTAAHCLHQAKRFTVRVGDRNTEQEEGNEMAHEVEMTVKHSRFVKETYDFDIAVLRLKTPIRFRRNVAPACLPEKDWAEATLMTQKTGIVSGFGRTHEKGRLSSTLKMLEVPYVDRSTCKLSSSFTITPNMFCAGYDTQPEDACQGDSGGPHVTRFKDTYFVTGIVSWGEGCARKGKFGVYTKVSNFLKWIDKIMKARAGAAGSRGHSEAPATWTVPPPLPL
factor Xa, sequence (P00743 41-180 partner limits assumed): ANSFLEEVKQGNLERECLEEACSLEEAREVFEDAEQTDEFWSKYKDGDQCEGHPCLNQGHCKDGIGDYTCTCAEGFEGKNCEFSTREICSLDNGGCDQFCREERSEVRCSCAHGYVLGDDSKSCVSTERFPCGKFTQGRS
Series [1] is described as follows: Plasma concentration in rats after subcutaneous administration (HPLC). Conditions: rat.
Description: (§1) For the pharmacokinetic characterization, the plasma concentration of selected derivatives was determined in rats after intravenous (i.v.), subcutaneous (s.c.) and peroral (p.o.) application according to the following three-step procedure:
(§2) 1. A physiological NaCl solution of the substance to be tested was submitted to high pressure liquid chromatography (HPLC) in order to determine its characteristic substance-specific retention time with the chosen test conditions.
(§3) 2. The substance to be tested was diluted in vitro in rat plasma. This solution was also submitted to HPLC to see whether the characteristic peak of the substance once again appeared at the substance-specific retention time.
(§4) 3. […] Blood samples were taken at time intervals of 15 minutes, from which plasma samples were prepared by centrifugation; those samples were also submitted to HPLC to see whether the characteristic peak of the substance appeared again at the substance-specific retention time.
Series [2] can be described thus: Plasma concentration in rats after oral administration (HPLC). Conditions: rat.
Series [3] is described as follows: Plasma concentration in rats after intravenous administration (HPLC). Conditions: for pharmacokinetic properties: in words, compared with NAPAP.
Description: as §1, §2, §3, §4
Where [4] appears, read: Tables 19-25, read-out: Ki, Factor Xa.

Structures can show the parent of a compound that is named as a salt. Where two headings read alike, the source gives them in different places.

T3 sequence (P03952 391-638 limits assumed, species assumed): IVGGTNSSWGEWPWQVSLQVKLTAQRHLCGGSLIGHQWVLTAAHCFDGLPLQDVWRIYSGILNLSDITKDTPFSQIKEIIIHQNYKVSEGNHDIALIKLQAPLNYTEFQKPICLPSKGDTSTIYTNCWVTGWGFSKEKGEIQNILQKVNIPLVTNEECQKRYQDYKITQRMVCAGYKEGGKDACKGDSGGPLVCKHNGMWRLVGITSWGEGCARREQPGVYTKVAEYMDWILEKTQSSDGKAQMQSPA
T3 sequence (P03952 20-390 partner limits assumed, species assumed): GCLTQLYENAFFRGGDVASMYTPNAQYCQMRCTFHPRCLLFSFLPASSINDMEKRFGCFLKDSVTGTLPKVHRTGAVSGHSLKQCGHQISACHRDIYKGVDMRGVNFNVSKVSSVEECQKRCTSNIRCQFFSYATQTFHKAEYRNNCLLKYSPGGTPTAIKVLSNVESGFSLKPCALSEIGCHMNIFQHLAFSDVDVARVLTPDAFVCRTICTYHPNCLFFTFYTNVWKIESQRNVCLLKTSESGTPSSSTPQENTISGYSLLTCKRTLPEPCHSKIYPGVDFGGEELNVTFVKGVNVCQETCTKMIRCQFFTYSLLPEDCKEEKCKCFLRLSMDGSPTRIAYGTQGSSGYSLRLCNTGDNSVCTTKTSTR
glandular kallikrein, sequence (P00752 8-246): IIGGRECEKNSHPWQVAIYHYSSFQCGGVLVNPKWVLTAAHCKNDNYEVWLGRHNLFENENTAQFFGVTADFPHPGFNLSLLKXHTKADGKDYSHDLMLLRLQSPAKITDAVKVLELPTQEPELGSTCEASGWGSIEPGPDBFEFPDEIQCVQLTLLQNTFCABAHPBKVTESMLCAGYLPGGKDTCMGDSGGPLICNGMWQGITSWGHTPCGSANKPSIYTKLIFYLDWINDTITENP
T1 sequence (P00747 581-810 limits assumed): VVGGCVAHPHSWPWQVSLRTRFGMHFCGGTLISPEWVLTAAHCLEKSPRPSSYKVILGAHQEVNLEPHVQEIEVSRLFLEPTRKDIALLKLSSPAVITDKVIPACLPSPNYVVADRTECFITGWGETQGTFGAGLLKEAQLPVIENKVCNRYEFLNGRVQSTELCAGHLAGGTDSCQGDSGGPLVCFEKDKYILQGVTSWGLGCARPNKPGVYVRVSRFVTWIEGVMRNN
T1 sequence (P00747 97-580 partner limits assumed): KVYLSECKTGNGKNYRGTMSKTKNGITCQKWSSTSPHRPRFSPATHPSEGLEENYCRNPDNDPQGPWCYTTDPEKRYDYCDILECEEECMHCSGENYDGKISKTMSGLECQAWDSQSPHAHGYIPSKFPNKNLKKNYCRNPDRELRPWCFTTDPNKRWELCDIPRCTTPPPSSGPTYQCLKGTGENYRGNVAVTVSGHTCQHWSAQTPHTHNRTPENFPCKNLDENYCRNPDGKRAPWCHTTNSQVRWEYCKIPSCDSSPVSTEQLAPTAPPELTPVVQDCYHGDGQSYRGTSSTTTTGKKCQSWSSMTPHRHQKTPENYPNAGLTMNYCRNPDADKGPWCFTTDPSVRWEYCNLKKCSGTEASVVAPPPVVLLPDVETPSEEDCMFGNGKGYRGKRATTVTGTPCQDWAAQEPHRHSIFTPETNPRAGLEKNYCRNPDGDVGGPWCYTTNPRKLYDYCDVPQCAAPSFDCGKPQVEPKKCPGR

In the case of `COC(=O)[C@H](Cc1cccc(C(=N)N)c1)NC(=O)CNS(=O)(=O)c1ccc(C)cc1` [TAPAM, Nα-tosylglycyl-3-amidinophenylalanine methyl ester, reference compound], the LD50 at 168 h in the series “in vivo” (iv) is 103 mg/kg; in the series “in vivo” (po), greater than 1000 mg/kg. Besides, the Ki was found to be 160 µM at plasmin; 890 µM on glandular kallikrein; 180 µM at factor XIIa; 27 µM at tPA; 15 µM at plasma kallikrein.

Regarding `N=C(N)Nc1cccc(CC(NS(=O)(=O)c2ccc3ccccc3c2)C(=O)N2CCCCC2C(=O)O)c1` (racemic) [Compound 208, N-α-(2-Naphthylsulfonyl)-3-guanidino-(D,L)-phenylalanine-(D,L)-pipecolic acid hydrochloride], the median lethal dose (LD50) at 168 h was greater than 50 mg/kg in “in vivo” (iv) and greater than 1000 mg/kg in “in vivo” (po). Also, the inhibitory constant (Ki) worked out at 29 µM at thrombin and 82 µM on factor Xa (setting [4]).

`CC1CCN(C(=O)C(Cc2cccc(C(=N)N)c2)NS(=O)(=O)c2cccc3cccnc23)CC1` (racemic) [Compound 171, N-α-(8-quinolinesulfonyl)-3-amidino-(D,L)-phenylalanine-4-methylpiperidide hydroiodide]: the inhibition constant (Ki) on plasmin is 100 µM; at glandular kallikrein, 260 µM; on factor XIIa it was 780 µM; on thrombin it was 0.34 µM; at tPA, greater than 1000 µM; at factor Xa (setting [4]) it was 180 µM. This compound also yielded a Ki at plasma kallikrein greater than 1000 µM.

Regarding `COC(=O)C1CCCCN1C(=O)C(Cc1cccc(C(=N)N)c1)NS(=O)(=O)c1ccc2ccccc2c1` (racemic) [Compound 94], the inhibition constant (Ki) on plasmin is 10.5 µM; at glandular kallikrein, greater than 1000 µM; at factor XIIa it was 500 µM; at thrombin, 0.07 µM; at tPA it was 220 µM; at factor Xa (setting [4]), 46 µM. This compound registered a Ki at plasma kallikrein of 35 µM.

`COC(=O)C(Cc1cccc(C(=N)N)c1)NS(=O)(=O)c1ccc2ccccc2c1` (racemic) [Compound 7]: the Ki was 5.2 µM at plasmin; 210 µM at glandular kallikrein; 190 µM at factor XIIa; 0.28 µM on thrombin; 120 µM at tPA; 2.5 µM on factor Xa (setting [4]). The Ki at plasma kallikrein worked out at 18 µM.

Regarding `CN1CCN(C(=O)C(Cc2cccc(C(=N)N)c2)NS(=O)(=O)c2ccc3ccccc3c2)CC1` (racemic) [Compound 35], the Ki on plasmin was 31 µM; on glandular kallikrein, greater than 1000 µM; at factor XIIa it was greater than 1000 µM; at tPA, 430 µM; on factor Xa it was 30 µM; on plasma kallikrein, 85 µM.

Compound `NCc1cccc(CC(NS(=O)(=O)c2ccc3ccccc3c2)C(=O)N2CCC(C(=O)O)CC2)c1` (racemic) [Compound 186] registered an LD50 at 168 h in “in vivo” (iv) of 100 mg/kg. Besides, the LD50 at 168 h in “in vivo” (po) is greater than 3000 mg/kg. For the same compound, in series [1] (plasma, sc, 5 mg/kg), the concentration at 0.25 h was determined as 251 ng/mL, the concentration at 0.5 h was determined as 368 ng/mL, the concentration at 0.75 h was 444 ng/mL and the concentration at 1 h stood at 558 ng/mL. Moreover, in [1] (plasma, sc, 5 mg/kg), the concentration at 1.5 h stood at 629 ng/mL, the concentration at 2 h came to 534 ng/mL, the concentration at 3 h is 533 ng/mL and the concentration at 4 h amounted to 669 ng/mL. In addition, in series [1] (plasma, sc, 5 mg/kg), the concentration at 5 h turned out to be 455 ng/mL and the concentration at 6 h came to 340 ng/mL. In series [2] (plasma, po, 100 mg/kg), this compound came in with a concentration at 0.25 h of 996 ng/mL, a concentration at 0.5 h of 800 ng/mL, a concentration at 0.75 h of 769 ng/mL and a concentration at 1 h of 1250 ng/mL. In [2] (plasma, po, 100 mg/kg), the concentration at 1.5 h amounted to 877 ng/mL, the concentration at 2 h was 619 ng/mL, the concentration at 3 h stood at 357 ng/mL and the concentration at 4 h was 328 ng/mL. In series [2] (plasma, po, 100 mg/kg), this compound yielded a concentration at 5 h of 370 ng/mL and a concentration at 6 h of 326 ng/mL. Also, in [3], the pharmacokinetic properties entry was “improved pharmacokinetic properties”. Further, in series [3] (rat, plasma, iv, 1 mg/kg), the concentration at 2 min amounted to 1840 ng/mL, the concentration at 5 min was 1260 ng/mL, the concentration at 10 min stood at 653 ng/mL and the concentration at 0.25 h came to 426 ng/mL. In series [3] (rat, plasma, iv, 1 mg/kg), this compound displayed a concentration at 0.5 h of 225 ng/mL, a concentration at 0.75 h of 205 ng/mL, a concentration at 1 h of 193 ng/mL and a concentration at 1.5 h of 53 ng/mL. The same compound had a concentration at 2 h in [3] (rat, plasma, iv, 1 mg/kg) of 228 ng/mL. On thrombin, this compound showed an inhibition constant Ki of 0.5 µM. The Ki on factor Xa (setting [4]) worked out at 230 µM.

Regarding `N=C(N)c1cccc(C[C@H](NS(=O)(=O)c2ccc3ccccc3c2)C(=O)N2CCC[C@H]2C(=O)O)c1` [Nα-2-naphthylsulfonyl-3-amidinophenylalanyl proline], in [1] (s.c.), the “blood level after subcutaneous administration” value was “a relatively high blood level is reached which is maintained in an anticoagulantly effective concentration for a prolonged period of time”. Also, in series [2] (oral), the “detection / concentration in plasma or absorption after oral administration” value was “absorbed by the intestine”. The pharmacokinetic properties entry in series [3] is recorded as “excellent pharmacokinetic properties”. For the same compound, at thrombin (in words), the inhibition of thrombin entry is given as “surprisingly inhibits thrombin”. In addition, the “inhibition of factor Xa” value against factor Xa (in words) was “does not selectively inhibit factor Xa”.

In turn, `N=C(N)c1cccc(CC(NS(=O)(=O)c2ccc3ccccc3c2)C(=O)N2CCC(C(=O)O)CC2)c1` (racemic) [Compound 85] displayed a median lethal dose (LD50) at 168 h in “in vivo” (iv) of 43 mg/kg. For the same compound, the LD50 at 168 h in “in vivo” (po) was greater than 3000 mg/kg. Further, in series [1] (plasma, sc, 5 mg/kg), the concentration at 0.25 h was 1330 ng/mL, the concentration at 0.5 h was 1030 ng/mL, the concentration at 0.75 h was determined as 860 ng/mL and the concentration at 1 h was found to be 834 ng/mL. In [1] (plasma, sc, 5 mg/kg), this compound returned a concentration at 1.5 h of 913 ng/mL, a concentration at 2 h of 977 ng/mL, a concentration at 3 h of 815 ng/mL and a concentration at 4 h of 676 ng/mL. The same compound registered a concentration at 5 h in series [1] (plasma, sc, 5 mg/kg) of 550 ng/mL. In series [2] (oral 100 mg/kg, 240 min), this compound came in with a Concentration in plasma of 0 ng/mL. In series [2] (plasma, po, 100 mg/kg), this compound displayed a concentration at 0.25 h of 870 ng/mL, a concentration at 0.5 h of 541 ng/mL, a concentration at 0.75 h of 345 ng/mL and a concentration at 1 h of 120 ng/mL. Besides, in [2] (plasma, po, 100 mg/kg), the concentration at 2 h amounted to 103 ng/mL and the concentration at 3 h is 104 ng/mL. In [3] (rat, plasma, iv, 1 mg/kg), this compound came in with a concentration at 2 min of 2350 ng/mL, a concentration at 5 min of 1240 ng/mL, a concentration at 10 min of 526 ng/mL and a concentration at 0.25 h of 334 ng/mL. In series [3] (rat, plasma, iv, 1 mg/kg), this compound had a concentration at 0.5 h of 240 ng/mL, a concentration at 0.75 h of 176 ng/mL, a concentration at 1 h of 99 ng/mL and a concentration at 1.5 h of 52 ng/mL. In series [3] (rat, plasma, iv, 1 mg/kg), this compound gave a concentration at 2 h of 28 ng/mL and a concentration at 4 h of 14 ng/mL.

Values taken from US5518735A, “Meta-substituted phenylalanine derivatives” (priority 1990, dated 1996).
